Data from US20040087651A1, “Monoterpene as a chemopreventive agent for regression of mammalian nervous system cell tumors, use of monoterpene for causing regression and inhibition of nervous system cell tumors, and method for administration of monoterpene perillyl alcohol” (priority 2001, published 2004).

Tests used:
[1] = system: human glioma A 172 cells; assay: Cellular Proliferation Assay (MTT); assay type: cell-based
Procedure: (§1) a—Cell Culture: Human malignant gliomas U 87 and A 172 cells were obtained from the American Type Culture Collection (ATCC), and grown as monolayers on the at 37° C., in Dulbecco's Modified Eagle Medium supplemented with 0.2 mM nonessential amino acids, 10% (v/v) fetal calf serum, penicillin (100 UI/mL), streptomycin ([…]) and amphotericin B (Fungizone, […]). For subcultures, confluent monolayers were gently washed with Dulbecco's phosphate—buffered saline (PBS, pH 7.2), and after a short exposure to trypsin, the cells were transferred to a new bottle containing complete growth media.
(§2) Cellular Proliferation Assay: the target cells (human glioma U 87 and A 172) were cultivated in plates of 96 wells at a concentration of 5.0×10^5 cells by well. After the cellular adherence the cells were placed in multiple POH dilutions, in triplicates, having as positive control cells growing with detergent Tween 20. The negative control were cells growing without any additive. Concentrations varying from 30%, 3%, 0.03%, 0.003%, 0.0003% (v/v) were applied and after 24 hours of incubation 1.0 mg of hydrogen acceptor 3 (4,5 dimethylthiazol-2yi)-2-5 diphenyltetrazolium bromide (MTT) solution was added in each well, and the culture was incubated for additional 3 hours. […] An ELISA reader with 490 nm filter was used to read the results.

[2] = system: human glioma U 87 cells; assay: Cellular Proliferation Assay (MTT); assay type: cell-based
Procedure: as §1, §2

[3] = system: glial cell C6; assay: Effect on glial cell C6 growth; assay type: cell-based, rats; conditions: various concentrations (FIG. 2)
[4] = system: A 172 cells; assay: Studies of cell morphology; assay type: cell-based, human; conditions: POH 0,3%
Procedure: (§3) Studies of cell morphology:_A 172 and U 87 cells were cultivated in plates of 6 wells. After 24 hours, perillyl alcohol was added to a final concentration of 0.3% (v/v). Monolayers of cells treated with POH were photographed by an optic microscope inverted NIKON TMS, to register morphological changes induced by the treatment. All studies of cell morphology were performed at least three times to ensure accurate interpretation.

[5] = system: U 87 cells; assay: Studies of cell morphology; assay type: cell-based, human; conditions: POH 0,3%
Procedure: as §3

[6] = system: A 172 glial cells; assay: Chorioallantoic Membrane (CAM) Assay, anti-metastatic activity; assay type: in vivo, human; conditions: A 172 cells exposed to POH 0,3% to 0,03% for 2 hours prior to inoculation in chick embryo chorioallantoic membrane
Procedure: (§4) After determination of cell concentration applying a Neubauer Chamber, 2×10^6 cells were incubated for 2 hours at 37° C., in D-MEM medium containing concentrations varying from […] or 3% of perillyl alcohol (Sigma), prior to inoculation on CAM.
(§5) b—Chorioallantoic Membrane (CAM) Assay: seven days old fertilized specific pathogen free chick eggs were used in this study. By transillumination in a dark chamber, the egg air camera was marked on the eggshell. The following procedures were done under aseptic conditions, in the laminar chamber. An opening was made in the upper part and another in the lateral part of the eggshell, and the air camera was mechanically displaced to the upper side by applying negative pressure at the lateral opening. Both openings were sealed. In the upper part of the egg, a small window was made. On the upper CAM, the cells were inoculated, with a sterile pipette. Eggs 1, 2 and 3 received 2×10^6 cells previously treated with POH (0.03, 0.3 and 3%, respectively) diluted D-MEM medium. Egg 4 received 2×10^6 untreated cells in D-MEM medium. Egg 5 was used as negative control (no cells inoculated). The windows were sealed and the eggs were kept at 37° C. and 60% humidity, in the horizontal position, without agitation, for seven days
(§6) Opening of the eggs. […]

[7] = system: U 87 glial cells; assay: as above; assay type: in vivo, human; conditions: U 87 cells exposed to POH 0,3% to 0,03% for 2 hours prior to inoculation in chick embryo chorioallantoic membrane
Procedure: as §4, §5, §6

[8] = system: glial cell lines; assay: Inhibition of protein expression in glial cell lines; assay type: cell-based; conditions: POH treatment in glial cell lines (FIG. 10: A 172)
[9] = system: rats; conditions: rat, in vivo
[10] = system: rats; conditions: perillyl alcohol diet; cited from earlier work

C=C(C)[C@@H]1CC=C(CO)CC1 [perillyl alcohol, p-metha, 1,7-diene-6-ol or 4-isopropenyl-cyclohexanecarbinol]
proliferation of glioma cell lines ([1]; POH 30%, 3%, 0,3% and 0,03%, preliminary in vitro studies): inhibits the proliferation
cell growth ([1]; various concentrations (FIG. 4)): significantly inhibited cell growth in a dose dependent manner
proliferation of glioma cell lines ([2]; U 87, POH 30%, 3%, 0,3% and 0,03%, preliminary in vitro studies): inhibits the proliferation
cell growth ([2]; U87, various concentrations (FIG. 3)): significantly inhibited cell growth in a dose dependent manner
cell growth [3]: significantly inhibited cell growth in a dose dependent manner
cell morphology [4]: changes in morphology, indicative of cellular differentiation
cell morphology [5]: changes in morphology, indicative of cellular differentiation
anti-metastatic activity [6]: anti metastatic activity
anti-metastatic activity [7]: anti metastatic activity
protein expression [8]: inhibition protein expression
toxicity in tissues of lung, liver, and brain [9]: no toxicity
maximum dose tolerated [10]: 2,5%
